In ChEMBL document CHEMBL4818987, “Recent advances of podophyllotoxin/epipodophyllotoxin hybrids in anticancer activity, mode of action, and structure-activity relationship: An update (2010-2020)” (Eur J Med Chem, 2020):

Columns and labels:
Assay type in all cases: functional, cell-based
MKN-45 = test: Antiproliferative activity against human MKN-45 cells incubated for 48 to 72 hrs by MTT assay
NCI-H1993 = test: Antiproliferative activity against human NCI-H1993 cells incubated for 48 to 72 hrs by MTT assay
B16 = test: Antiproliferative activity against […] cells incubated for 48 to 72 hrs by MTT assay; conditions: Mus musculus
HepG2 = test: Antiproliferative activity against human HepG2 cells incubated for 48 to 72 hrs by MTT assay
KB [1] = test: Cytotoxicity against human Vincristine-resistant KB cells incubated for 72 hrs by SRB method
KB [2] = test: Cytotoxicity against human KB cells incubated for 72 hrs by SRB method

Row | Compound | IC50 (MKN-45) | IC50 (NCI-H1993) | IC50 (B16) | IC50 (HepG2) | IC50 (KB [1]) | IC50 (KB [2])
1 | COc1cc([C@@H]2c3cc4c(cc3[C@H](n3cc(COc5ccc6c(c5)OCO6)nn3)[C@H]3COC(=O)[C@H]23)OCO4)cc(OC)c1OC | 130 nM | 130 nM | 130 nM | 130 nM |  | 
2 | COc1cc([C@@H]2c3cc4c(cc3[C@@H](SSS[C@@H]3O[C@H](CO)[C@@H](O)[C@H](O)[C@H]3O)[C@H]3COC(=O)[C@H]23)OCO4)cc(OC)c1O |  |  |  |  | 1120 nM | 1120 nM
3 | COc1ccc(OCc2cn([C@H]3c4cc5c(cc4[C@@H](c4cc(OC)c(OC)c(OC)c4)[C@H]4C(=O)OC[C@@H]43)OCO5)nn2)cc1 | 130 nM | 130 nM | 130 nM | 130 nM |  | 
4 | COc1cc([C@@H]2c3cc4c(cc3[C@@H](SS[C@@H]3O[C@H](COC(C)=O)[C@H](OC(C)=O)[C@H](OC(C)=O)[C@H]3OC(C)=O)[C@H]3COC(=O)[C@H]23)OCO4)cc(OC)c1O |  |  |  |  | 1120 nM | 1120 nM
5 | COc1cc([C@@H]2c3cc4c(cc3[C@H](n3cc(COc5ccc(-c6ccccc6)cc5)nn3)[C@H]3COC(=O)[C@H]23)OCO4)cc(OC)c1OC | 150 nM | 150 nM | 150 nM | 150 nM |  | 
6 | COc1ccc(/C=C/C(=O)c2ccc(OCc3cn([C@H]4c5cc6c(cc5[C@@H](c5cc(OC)c(OC)c(OC)c5)[C@H]5C(=O)OC[C@@H]54)OCO6)nn3)c(OC)c2)cc1OC | 130 nM | 130 nM | 130 nM | 130 nM |  | 
7 | COc1cc([C@@H]2c3cc4c(cc3[C@@H](SSCCCN(C(C)C)C(C)C)[C@H]3COC(=O)[C@H]23)OCO4)cc(OC)c1O |  |  |  |  | 1120 nM | 1120 nM
8 | CCc1ccc(OCc2cn([C@H]3c4cc5c(cc4[C@@H](c4cc(OC)c(OC)c(OC)c4)[C@H]4C(=O)OC[C@@H]43)OCO5)nn2)cc1 | 130 nM | 130 nM | 130 nM | 130 nM |  | 
9 | COc1cc([C@@H]2c3cc4c(cc3[C@@H](SSCCCN3CCCCC3CO)[C@H]3COC(=O)[C@H]23)OCO4)cc(OC)c1O (stereo not given in full) |  |  |  |  | 1120 nM | 1120 nM
10 | COc1cc([C@@H]2c3cc4c(cc3[C@@H](SSCCN3CCOCC3)[C@H]3COC(=O)[C@H]23)OCO4)cc(OC)c1O |  |  |  |  | 1120 nM | 1120 nM
11 | COc1cc(C(=O)/C=C/c2ccsc2)ccc1OCc1cn([C@H]2c3cc4c(cc3[C@@H](c3cc(OC)c(OC)c(OC)c3)[C@H]3C(=O)OC[C@@H]32)OCO4)nn1 | 130 nM | 130 nM | 130 nM | 130 nM |  | 
12 | COc1ccccc1/C=C/C(=O)c1ccc(OCc2cn([C@H]3c4cc5c(cc4[C@@H](c4cc(OC)c(OC)c(OC)c4)[C@H]4C(=O)OC[C@@H]43)OCO5)nn2)c(OC)c1 | 130 nM | 130 nM | 130 nM | 130 nM |  | 
13 | COc1cc([C@@H]2c3cc4c(cc3[C@@H](SS[C@@H]3O[C@H](CO)[C@H](O)[C@H](O)[C@H]3O)[C@H]3COC(=O)[C@H]23)OCO4)cc(OC)c1O |  |  |  |  | 9960 nM | 1120 nM
14 | COc1cc(C(=O)/C=C/c2ccc(N(C)C)cc2)ccc1OCc1cn([C@H]2c3cc4c(cc3[C@@H](c3cc(OC)c(OC)c(OC)c3)[C@H]3C(=O)OC[C@@H]32)OCO4)nn1 | 130 nM | 130 nM | 130 nM | 130 nM |  | 
15 | COc1cc([C@@H]2c3cc4c(cc3[C@@H](SSCCCN3CCC(O)CC3)[C@H]3COC(=O)[C@H]23)OCO4)cc(OC)c1O |  |  |  |  | 1120 nM | 1120 nM
16 | COc1cc([C@@H]2c3cc4c(cc3[C@H](n3cc(C(C)(C)Oc5ccc([N+](=O)[O-])cc5)nn3)[C@H]3COC(=O)[C@H]23)OCO4)cc(OC)c1OC | 130 nM | 130 nM | 130 nM | 130 nM |  | 
17 | COc1cc([C@@H]2c3cc4c(cc3[C@@H](SSc3cccnc3)[C@H]3COC(=O)[C@H]23)OCO4)cc(OC)c1O |  |  |  |  | 1120 nM | 1120 nM
18 | CCSS[C@@H]1c2cc3c(cc2[C@@H](c2cc(OC)c(O)c(OC)c2)[C@H]2C(=O)OC[C@@H]21)OCO3 |  |  |  |  | 1120 nM | 1120 nM
19 | COc1cc(C(=O)/C=C/c2ccc(C(F)(F)F)cc2)ccc1OCc1cn([C@H]2c3cc4c(cc3[C@@H](c3cc(OC)c(OC)c(OC)c3)[C@H]3C(=O)OC[C@@H]32)OCO4)nn1 | 130 nM | 130 nM | 130 nM | 130 nM |  | 
20 | COc1cc([C@@H]2c3cc4c(cc3[C@H](n3cc(COc5cccc([N+](=O)[O-])c5)nn3)[C@H]3COC(=O)[C@H]23)OCO4)cc(OC)c1OC | 130 nM | 130 nM | 130 nM | 130 nM |  | 
21 | COc1cc([C@@H]2c3cc4c(cc3[C@@H](SSSCC(O)CO)[C@H]3COC(=O)[C@H]23)OCO4)cc(OC)c1O (stereo not given in full) |  |  |  |  | 1120 nM | 1120 nM
22 | COc1cc([C@@H]2c3cc4c(cc3[C@@H](SSCC(=O)N3CCOCC3)[C@H]3COC(=O)[C@H]23)OCO4)cc(OC)c1O |  |  |  |  | 1120 nM | 1120 nM
23 | COc1cc([C@@H]2c3cc4c(cc3[C@@H](SSCCCN3CCCCC3)[C@H]3COC(=O)[C@H]23)OCO4)cc(OC)c1O |  |  |  |  | 1120 nM | 1120 nM
24 | COc1cc([C@@H]2c3cc4c(cc3[C@@H](SS[C@@H]3O[C@H](CO)[C@@H](O)[C@H](O)[C@H]3O)[C@H]3COC(=O)[C@H]23)OCO4)cc(OC)c1O |  |  |  |  | 1120 nM | 1120 nM

Row | Compound | IC50 (MKN-45) | IC50 (NCI-H1993) | IC50 (B16) | IC50 (HepG2) | IC50 (KB [1]) | IC50 (KB [2])
25 | COc1cc([C@@H]2c3cc4c(cc3[C@@H](SSCCCN3CCN(C(C)=O)CC3)[C@H]3COC(=O)[C@H]23)OCO4)cc(OC)c1O |  |  |  |  | 1120 nM | 1120 nM
26 | COc1cc([C@@H]2c3cc4c(cc3[C@@H](SS[C@@H]3O[C@@H]5O[C@@H](c6cccs6)OC[C@H]5[C@H](O)[C@H]3O)[C@H]3COC(=O)[C@H]23)OCO4)cc(OC)c1O |  |  |  |  | 1120 nM | 1120 nM
27 | COc1ccc(OC(C)(C)c2cn([C@H]3c4cc5c(cc4[C@@H](c4cc(OC)c(OC)c(OC)c4)[C@H]4C(=O)OC[C@@H]43)OCO5)nn2)cc1 | 130 nM | 130 nM | 130 nM | 130 nM |  | 
28 | COc1cc([C@@H]2c3cc4c(cc3[C@@H](SS[C@@H]3O[C@@H]5O[C@@H](C)OC[C@H]5[C@H](O)[C@H]3O)[C@H]3COC(=O)[C@H]23)OCO4)cc(OC)c1O |  |  |  |  | 1120 nM | 1120 nM
29 | COc1cc([C@@H]2c3cc4c(cc3[C@@H](SSSCCO)[C@H]3COC(=O)[C@H]23)OCO4)cc(OC)c1O |  |  |  |  | 1120 nM | 1120 nM
30 | COc1cc([C@@H]2c3cc4c(cc3[C@@H](SSCC(=O)N3CCC(=O)CC3)[C@H]3COC(=O)[C@H]23)OCO4)cc(OC)c1O |  |  |  |  | 1120 nM | 1120 nM
31 | COc1cc([C@@H]2c3cc4c(cc3[C@@H](SSCCCN3CCN(C)CC3)[C@H]3COC(=O)[C@H]23)OCO4)cc(OC)c1O |  |  |  |  | 1120 nM | 1120 nM
32 | COc1cc([C@@H]2c3cc4c(cc3[C@@H](SSCCCN3CCCC3)[C@H]3COC(=O)[C@H]23)OCO4)cc(OC)c1O |  |  |  |  | 1120 nM | 1120 nM
33 | COc1cc([C@@H]2c3cc4c(cc3[C@@H](SSc3ccccn3)[C@H]3COC(=O)[C@H]23)OCO4)cc(OC)c1O |  |  |  |  | 1120 nM | 1120 nM
34 | COc1cc([C@@H]2c3cc4c(cc3[C@@H](SSSCC(=O)N3CCNCC3)[C@H]3COC(=O)[C@H]23)OCO4)cc(OC)c1O |  |  |  |  | 1120 nM | 1120 nM
35 | COC(=O)C(N)CSS[C@@H]1c2cc3c(cc2[C@@H](c2cc(OC)c(O)c(OC)c2)[C@H]2C(=O)OC[C@@H]21)OCO3 (stereo not given in full) |  |  |  |  | 1120 nM | 1120 nM
36 | COc1cc([C@@H]2c3cc4c(cc3[C@@H](SSCCO)[C@H]3COC(=O)[C@H]23)OCO4)cc(OC)c1O |  |  |  |  | 1120 nM | 1120 nM
37 | COc1cc([C@@H]2c3cc4c(cc3[C@@H](SSCCCN3CCOCC3)[C@H]3COC(=O)[C@H]23)OCO4)cc(OC)c1O |  |  |  |  | 1120 nM | 1120 nM
38 | CCN(CC)CCCSS[C@@H]1c2cc3c(cc2[C@@H](c2cc(OC)c(O)c(OC)c2)[C@H]2C(=O)OC[C@@H]21)OCO3 |  |  |  |  | 1120 nM | 1120 nM
39 | COc1cc([C@@H]2c3cc4c(cc3[C@@H](SSc3cccs3)[C@H]3COC(=O)[C@H]23)OCO4)cc(OC)c1O |  |  |  |  | 1120 nM | 1120 nM
40 | COc1cc([C@@H]2c3cc4c(cc3[C@@H](SSCCN3CCCC(O)C3)[C@H]3COC(=O)[C@H]23)OCO4)cc(OC)c1O (stereo not given in full) |  |  |  |  | 1120 nM | 1120 nM
41 | COc1cc([C@@H]2c3cc4c(cc3[C@@H](SSCCN)[C@H]3COC(=O)[C@H]23)OCO4)cc(OC)c1O |  |  |  |  | 1120 nM | 1120 nM
42 | COc1cc([C@@H]2c3cc4c(cc3[C@@H](SSCC(=O)N3CCNCC3)[C@H]3COC(=O)[C@H]23)OCO4)cc(OC)c1O |  |  |  |  | 1120 nM | 1120 nM
43 | COc1cc([C@@H]2c3cc4c(cc3[C@@H](SSCCCN3CCNCC3)[C@H]3COC(=O)[C@H]23)OCO4)cc(OC)c1O |  |  |  |  | 1120 nM | 1120 nM
44 | COc1cc([C@@H]2c3cc4c(cc3[C@@H](SSCCN3CCNCC3)[C@H]3COC(=O)[C@H]23)OCO4)cc(OC)c1O |  |  |  |  | 1120 nM | 1120 nM
45 | COc1cc([C@@H]2c3cc4c(cc3[C@@H](SSCC(=O)N3CCC(O)CC3)[C@H]3COC(=O)[C@H]23)OCO4)cc(OC)c1O |  |  |  |  | 1120 nM | 1120 nM
46 | COc1cc([C@@H]2c3cc4c(cc3[C@@H](SSSCCCN3CCOCC3)[C@H]3COC(=O)[C@H]23)OCO4)cc(OC)c1O |  |  |  |  | 1120 nM | 1120 nM
47 | COc1cc([C@@H]2c3cc4c(cc3[C@@H](SSCC(=O)N3CCCC(O)C3)[C@H]3COC(=O)[C@H]23)OCO4)cc(OC)c1O (stereo not given in full) |  |  |  |  | 1120 nM | 1120 nM
48 | CCSSS[C@@H]1c2cc3c(cc2[C@@H](c2cc(OC)c(O)c(OC)c2)[C@H]2C(=O)OC[C@@H]21)OCO3 |  |  |  |  | 1120 nM | 1120 nM
